Data published in patent US20210254272A1, “TEXTILES HAVING ANTIMICROBIAL PROPERTIES” (Livinguard AG, priority 2015, published 2021).

Experiment: Leaching test: 100 g fabric soaked in 10 liters stagnant distilled water, 3 days (72 hours)
Type: physicochemical
Conditions: for Leaching of active ingredients: exhaust 80° C. 60 min, cured 180° C. 2 min, post wash
Experimental: The test procedure for leaching was as follows: 100 g (grams) of fabric as well as control fabrics were soaked in 10 liters of stagnant distilled water in a closed wide mouth jar. After 3 days (72 hours), the water samples were tested for leached substances as per standard analytical methods.
The test procedure for leaching was as follows: 100 g (grams) of fabric as well as control fabrics were soaked in 10 liters of stagnant distilled water in a closed wide mouth jar. After 3 days (72 hours), the water samples were tested for leached substances as per standard analytical methods. A weight of 100 g fabric was chosen because in the preferred embodiment of the water filter as described further below, each filter comprises a strip of fabric with 210 g/m^2, 3 meters long and 0.16 meters wide, which corresponds to 100 g of fabric.

For Silver, the “Leaching of active ingredients (in ppm)” value (0.2% each in mixture (o.w.f), exhaust 80° C., 60 min, curing 180° C., 2 min, unwashed) was 7 ppm, the “Leaching of active ingredients (in ppm)” value (0.5% each in mixture (o.w.f), exhaust 80° C., 60 min, curing 180° C., 2 min, unwashed) was 11 ppm and the “Leaching of active ingredients (in ppm)” value (1.0% each in mixture (o.w.f), exhaust 80° C., 60 min, curing 180° C., 2 min, unwashed) was 18 ppm. For the same substance, the Leeching in ppm (Exhaust + Wash + pad + Wash, exhaust 0.1% o.w.f. each in mixture, 1 gm/liter pad) was 0.3 ppm, the Leeching in ppm (Exhaust + Wash + pad + Wash, exhaust 0.1% o.w.f. each in mixture, 5 gm/liter pad) was 0.5 ppm and the Leeching in ppm (Exhaust + Wash + pad + Wash, exhaust 0.1% o.w.f. each in mixture, 10 gm/liter pad) was 0.6 ppm. It also gave a Leeching in ppm (Exhaust + Wash + pad + Wash, exhaust 0.25% o.w.f. each in mixture, 1 gm/liter pad) of 3 ppm, a Leeching in ppm (Exhaust + Wash + pad + Wash, exhaust 0.25% o.w.f. each in mixture, 5 gm/liter pad) of 7 ppm and a Leeching in ppm (Exhaust + Wash + pad + Wash, exhaust 0.25% o.w.f. each in mixture, 10 gm/liter pad) of 16 ppm. For the same substance, the Leeching in ppm (Exhaust + Wash + pad + Wash, exhaust 0.5 (% o.w.f) each in mixture, 1 gm/liter pad) was 8 ppm, the Leeching in ppm (Exhaust + Wash + pad + Wash, exhaust 0.5 (% o.w.f) each in mixture, 5 gm/liter pad) was 14 ppm and the Leeching in ppm (Exhaust + Wash + pad + Wash, exhaust 0.5 (% o.w.f) each in mixture, 10 gm/liter pad) was 22 ppm. The Leeching in ppm (Exhaust + Wash + pad + Wash, exhaust 1.0% o.w.f. each in mixture, 1 gm/liter pad) was 14 ppm, the Leeching in ppm (Exhaust + Wash + pad + Wash, exhaust 1.0% o.w.f. each in mixture, 5 gm/liter pad) was 23 ppm and the Leeching in ppm (Exhaust + Wash + pad + Wash, exhaust 1.0% o.w.f. each in mixture, 10 gm/liter pad) was 28 ppm. It also gave a Leeching in ppm (Exhaust + pad + Wash, exhaust 0.1% o.w.f. each in mixture, 1 gm/liter pad) of 145 ppm, a Leeching in ppm (Exhaust + pad + Wash, exhaust 0.1% o.w.f. each in mixture, 5 gm/liter pad) of 235 ppm and a Leeching in ppm (Exhaust + pad + Wash, exhaust 0.1% o.w.f. each in mixture, 10 gm/liter pad) of 254 ppm. It also gave a Leeching in ppm (Exhaust + pad + Wash, exhaust 0.25% o.w.f. each in mixture, 1 gm/liter pad) of 223 ppm, a Leeching in ppm (Exhaust + pad + Wash, exhaust 0.25% o.w.f. each in mixture, 5 gm/liter pad) of 257 ppm and a Leeching in ppm (Exhaust + pad + Wash, exhaust 0.25% o.w.f. each in mixture, 10 gm/liter pad) of 534 ppm. It also gave a Leeching in ppm (Exhaust + pad + Wash, exhaust 0.5 (% o.w.f) each in mixture, 1 gm/liter pad) of 456 ppm, a Leeching in ppm (Exhaust + pad + Wash, exhaust 0.5 (% o.w.f) each in mixture, 5 gm/liter pad) of 573 ppm and a Leeching in ppm (Exhaust + pad + Wash, exhaust 0.5 (% o.w.f) each in mixture, 10 gm/liter pad) of 645 ppm. The Leeching in ppm (Exhaust + pad + Wash, exhaust 1.0% o.w.f. each in mixture, 1 gm/liter pad) was 534 ppm, the Leeching in ppm (Exhaust + pad + Wash, exhaust 1.0% o.w.f. each in mixture, 5 gm/liter pad) was 654 ppm and the Leeching in ppm (Exhaust + pad + Wash, exhaust 1.0% o.w.f. each in mixture, 10 gm/liter pad) was 849 ppm. The Leeching in ppm (Exhaust + pad, exhaust 0.1% o.w.f. each in mixture, 1 gm/liter pad) was 208 ppm, the Leeching in ppm (Exhaust + pad, exhaust 0.1% o.w.f. each in mixture, 5 gm/liter pad) was 298 ppm and the Leeching in ppm (Exhaust + pad, exhaust 0.1% o.w.f. each in mixture, 10 gm/liter pad) was 362 ppm. It also gave a Leeching in ppm (Exhaust + pad, exhaust 0.25% o.w.f. each in mixture, 1 gm/liter pad) of 320 ppm, a Leeching in ppm (Exhaust + pad, exhaust 0.25% o.w.f. each in mixture, 5 gm/liter pad) of 321 ppm and a Leeching in ppm (Exhaust + pad, exhaust 0.25% o.w.f. each in mixture, 10 gm/liter pad) of 387 ppm. The Leeching in ppm (Exhaust + pad, exhaust 0.5 (% o.w.f) each in mixture, 1 gm/liter pad) was 398 ppm, the Leeching in ppm (Exhaust + pad, exhaust 0.5 (% o.w.f) each in mixture, 5 gm/liter pad) was 453 ppm and the Leeching in ppm (Exhaust + pad, exhaust 0.5 (% o.w.f) each in mixture, 10 gm/liter pad) was 801 ppm. It also gave a Leeching in ppm (Exhaust + pad, exhaust 1.0% o.w.f. each in mixture, 1 gm/liter pad) of 595 ppm, a Leeching in ppm (Exhaust + pad, exhaust 1.0% o.w.f. each in mixture, 5 gm/liter pad) of 749 ppm and a Leeching in ppm (Exhaust + pad, exhaust 1.0% o.w.f. each in mixture, 10 gm/liter pad) of 1234 ppm. The Leeching in ppm (Exhaust +Wash + pad, exhaust 0.1% o.w.f. each in mixture, 1 gm/liter pad) was 86 ppm, the Leeching in ppm (Exhaust +Wash + pad, exhaust 0.1% o.w.f. each in mixture, 5 gm/liter pad) was 164 ppm and the Leeching in ppm (Exhaust +Wash + pad, exhaust 0.1% o.w.f. each in mixture, 10 gm/liter pad) was 254 ppm. It also gave a Leeching in ppm (Exhaust +Wash + pad, exhaust 0.25% o.w.f. each in mixture, 1 gm/liter pad) of 196 ppm, a Leeching in ppm (Exhaust +Wash + pad, exhaust 0.25% o.w.f. each in mixture, 5 gm/liter pad) of 212 ppm and a Leeching in ppm (Exhaust +Wash + pad, exhaust 0.25% o.w.f. each in mixture, 10 gm/liter pad) of 324 ppm. For the same substance, the Leeching in ppm (Exhaust +Wash + pad, exhaust 0.5 (% o.w.f) each in mixture, 1 gm/liter pad) was 375 ppm, the Leeching in ppm (Exhaust +Wash + pad, exhaust 0.5 (% o.w.f) each in mixture, 5 gm/liter pad) was 435 ppm and the Leeching in ppm (Exhaust +Wash + pad, exhaust 0.5 (% o.w.f) each in mixture, 10 gm/liter pad) was 578 ppm. The Leeching in ppm (Exhaust +Wash + pad, exhaust 1.0% o.w.f. each in mixture, 1 gm/liter pad) was 475 ppm, the Leeching in ppm (Exhaust +Wash + pad, exhaust 1.0% o.w.f. each in mixture, 5 gm/liter pad) was 546 ppm and the Leeching in ppm (Exhaust +Wash + pad, exhaust 1.0% o.w.f. each in mixture, 10 gm/liter pad) was 656 ppm. For the same substance, the “Leaching of active ingredients (in ppm)” value (exhaust 60° C., solution dosage 1% o.w.f, process time 60 min) was 21 ppm, the “Leaching of active ingredients (in ppm)” value (exhaust 60° C., solution dosage 1% o.w.f, process time 90 min) was 13 ppm and the “Leaching of active ingredients (in ppm)” value (exhaust 60° C., solution dosage 1% o.w.f, process time 120 min) was 13 ppm. The “Leaching of active ingredients (in ppm)” value (exhaust 60° C., solution dosage 1% o.w.f, process time 180 min) was 12 ppm, the “Leaching of active ingredients (in ppm)” value (exhaust 60° C., solution dosage 1% o.w.f, process time 240 min) was 15 ppm and the “Leaching of active ingredients” value (mixture 0.2% o.w.f. each) was 0.3 ppm. For the same substance, the “Leaching of active ingredients” value (mixture 0.5% o.w.f. each) was 0.5 ppm, the “Leaching of active ingredients” value (mixture 1% o.w.f. each) was 0.9 ppm and the “Leaching of active ingredients (in ppm)” value (exhaust 80° C., 1% o.w.f, 60 min, curing 170° C., curing dwell time 0.5 min) was 28 ppm. For the same substance, the “Leaching of active ingredients (in ppm)” value (exhaust 80° C., 1% o.w.f, 60 min, curing 170° C., curing dwell time 1.0 min) was 24 ppm, the “Leaching of active ingredients (in ppm)” value (exhaust 80° C., 1% o.w.f, 60 min, curing 170° C., curing dwell time 1.5 min) was 21 ppm and the “Leaching of active ingredients (in ppm)” value (exhaust 80° C., 1% o.w.f, 60 min, curing 170° C., curing dwell time 2.0 min) was 13 ppm. The “Leaching of active ingredients (in ppm)” value (exhaust 80° C., 1% o.w.f, 60 min, curing 170° C., curing dwell time 2.5 min) was 19 ppm, the “Leaching of active ingredients (in ppm)” value (exhaust 80° C., 1% o.w.f, 60 min, curing 170° C., curing dwell time 3.0 min) was 19 ppm and the “Leaching of active ingredients (in ppm)” value (exhaust 80° C., 1% o.w.f, 60 min, curing 180° C., curing dwell time 0.5 min) was 21 ppm. The “Leaching of active ingredients (in ppm)” value (exhaust 80° C., 1% o.w.f, 60 min, curing 180° C., curing dwell time 1.0 min) was 13 ppm, the “Leaching of active ingredients (in ppm)” value (exhaust 80° C., 1% o.w.f, 60 min, curing 180° C., curing dwell time 1.5 min) was 13 ppm and the “Leaching of active ingredients (in ppm)” value (exhaust 80° C., 1% o.w.f, 60 min, curing 180° C., curing dwell time 2.0 min) was 4 ppm. For the same substance, the “Leaching of active ingredients (in ppm)” value (exhaust 80° C., 1% o.w.f, 60 min, curing 180° C., curing dwell time 2.5 min) was 12 ppm, the “Leaching of active ingredients (in ppm)” value (exhaust 80° C., 1% o.w.f, 60 min, curing 180° C., curing dwell time 3.0 min) was 12 ppm and the “Leaching of active ingredients (in ppm)” value (exhaust 80° C., 1% o.w.f, 60 min, curing dwell time at 190° C. (title): 0.5 min) was 18 ppm. For the same substance, the “Leaching of active ingredients (in ppm)” value (exhaust 80° C., 1% o.w.f, 60 min, curing dwell time at 190° C. (title): 1.0 min) was 12 ppm, the “Leaching of active ingredients (in ppm)” value (exhaust 80° C., 1% o.w.f, 60 min, curing dwell time at 190° C. (title): 1.5 min) was 10 ppm and the “Leaching of active ingredients (in ppm)” value (exhaust 80° C., 1% o.w.f, 60 min, curing dwell time at 190° C. (title): 2.0 min) was 10 ppm. The “Leaching of active ingredients (in ppm)” value (exhaust 80° C., 1% o.w.f, 60 min, curing dwell time at 190° C. (title): 2.5 min) was 24 ppm and the “Leaching of active ingredients (in ppm)” value (exhaust 80° C., 1% o.w.f, 60 min, curing dwell time at 190° C. (title): 3.0 min) was 35 ppm.
